Measurements published in patent US10918743B2, “Contrast medium formulation and related preparation method” (GUERBET, priority 2013, dated 2021).

Assay: Thermodynamic equilibrium constant for the complexation of Gd3+
Format: physicochemical
Settings: complexation of Gd^3+ by the ligand
From the text: In the particular case where M represents a gadolinium ion, for the following chemical equilibria: [drawing 3] and DOTA+Gd ? [DOTA-Gd] (equation 2) the thermodynamic equilibrium constant of equation 1 (i.e. for the complexation of Gd^3+ by the ligand of formula I') is 10^14.9 (i.e. log ([…])=14.9), while the thermodynamic equilibrium constant of equation 2 (i.e. for the complexation of Gd^3+ by DOTA) is 10^25.6 (i.e. log ([…])=25.6). Thus, the formulations according to the invention go against the teachings of document U.S. Pat. No. 5,876,695 in particular, since the complex of DOTA with the gadolinium ion is more thermodynamically stable than the active complex.

Compound | log (Ktherm), thermodynamic equilibrium constant
O=C(CCC(C(=O)O)N1CCN(C(CCC(=O)NCC(O)CO)C(=O)O)Cc2cccc(n2)CN(C(CCC(=O)NCC(O)CO)C(=O)O)CC1)NCC(O)CO (centres unmarked) [ligand of formula I′] | 14.9
O=C(O)CN1CCN(CC(=O)O)CCN(CC(=O)O)CCN(CC(=O)O)CC1 [DOTA, 1,4,7,10-tetraazacyclododecane-1,4,7,10-tetraacetic acid] | 25.6
